pIC50: −log10 of the molar value. Several values for one entry are separate records, joined by “and”; a condition that tells them apart may be missing. Equal entries are not always repeated.
System: MDA-MB-468 multi-cell spheroids, viability
Test: Anticancer human tumor MDA-MB-468 cell line growth inhibition [IpAb];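 also: spheroids exposed to agents for seven days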;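 as to viability, T/C: 100% = DMSO vehicle control viability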
Details: for viability, T/C: stronger effect = lower value
Outline: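 Combinations with ipatasertib or abemaciclib were tested on tumour spheroids holding HUVEC (25%) and MSC (15%) alongside 60% malignant cells. Top concentration was at or near clinical Cmax (10 microM if undefined), descending in half-log steps.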

[1] = curve of first compound, second compound 0.1 µM
[2] = curve of first compound, second compound 0.316 µM
[3] = curve of first compound, second compound 1 µM
[4] = curve of first compound, second compound 3.16 µM
[5] = curve of first compound, second compound 10 µM

For `CC(C)n1nc(-c2ccc3oc(N)nc3c2)c2c(N)ncnc21`, the viability, T/C (compound 0.000316 µM) was 99% and 104%, the viability, T/C (compound 0.001 µM) was 84.2% and 89.2% and the viability, T/C (compound 0.00316 µM) was 74% and 80.1%. The viability, T/C (compound 0.01 µM) was 53.6% and 57.9%, the viability, T/C (compound 0.0316 µM) was 23.8% and 23.2% and the viability, T/C (compound 0.1 µM) was 9.32% and 10.4%. For the same molecule, the pIC50 (curve of compound) was 7.98 and 7.92.

For `Cn1cnc2c(F)c(Nc3ccc(Br)cc3Cl)c(C(=O)NOCCO)cc21` + CC(C)NCC(C(=O)N1CCN(c2ncnc3c2C(C)CC3O)CC1)c1ccc(Cl)cc1, the pIC50 [1] was 6.36, the pIC50 [2] was 7.26 and the pIC50 [3] was greater than 8.02. The pIC50 [4] was greater than 8.02, the pIC50 [5] was greater than 8.02 and the viability, T/C (second compound 0.1 µM, first compound 0.00949 µM) was 72.6%. The viability, T/C (second compound 0.1 µM, first compound 0.03 µM) was 72.2%, the viability, T/C (second compound 0.1 µM, first compound 0.0949 µM) was 63.4% and the viability, T/C (second compound 0.1 µM, first compound 0.3 µM) was 53.6%. It also gave a viability, T/C (second compound 0.1 µM, first compound 0.949 µM) of 41.2%, a viability, T/C (second compound 0.1 µM, first compound 3 µM) of 21.2% and a viability, T/C (second compound 0.316 µM, first compound 0.00949 µM) of 66.3%. For the same molecule, the viability, T/C (second compound 0.316 µM, first compound 0.03 µM) was 49%, the viability, T/C (second compound 0.316 µM, first compound 0.0949 µM) was 46.7% and the viability, T/C (second compound 0.316 µM, first compound 0.3 µM) was 35%. For the same molecule, the viability, T/C (second compound 0.316 µM, first compound 0.949 µM) was 28.8%, the viability, T/C (second compound 0.316 µM, first compound 3 µM) was 8.58% and the viability, T/C (second compound 1 µM, first compound 0.00949 µM) was 50.4%. For the same molecule, the viability, T/C (second compound 1 µM, first compound 0.03 µM) was 38.7%, the viability, T/C (second compound 1 µM, first compound 0.0949 µM) was 41.4% and the viability, T/C (second compound 1 µM, first compound 0.3 µM) was 24.2%. For the same molecule, the viability, T/C (second compound 1 µM, first compound 0.949 µM) was 16.6%, the viability, T/C (second compound 1 µM, first compound 3 µM) was 3.5% and the viability, T/C (second compound 3.16 µM, first compound 0.00949 µM) was 34.8%. The viability, T/C (second compound 3.16 µM, first compound 0.03 µM) was 28.4%, the viability, T/C (second compound 3.16 µM, first compound 0.0949 µM) was 22.2% and the viability, T/C (second compound 3.16 µM, first compound 0.3 µM) was 18%. The viability, T/C (second compound 3.16 µM, first compound 0.949 µM) was 5.62%, the viability, T/C (second compound 3.16 µM, first compound 3 µM) was 0.63% and the viability, T/C (second compound 10 µM, first compound 0.00949 µM) was 13.7%. For the same molecule, the viability, T/C (second compound 10 µM, first compound 0.03 µM) was 13.5%, the viability, T/C (second compound 10 µM, first compound 0.0949 µM) was 7.27% and the viability, T/C (second compound 10 µM, first compound 0.3 µM) was 3.11%. For the same molecule, the viability, T/C (second compound 10 µM, first compound 0.949 µM) was 0.84% and the viability, T/C (second compound 10 µM, first compound 3 µM) was 0.43%.

With `CCCS(=O)(=O)Nc1ccc(F)c(C(=O)c2c[nH]c3ncc(-c4ccc(Cl)cc4)cc23)c1F` + CC(C)NCC(C(=O)N1CCN(c2ncnc3c2C(C)CC3O)CC1)c1ccc(Cl)cc1 the pIC50 [1] was less than 5.00, the pIC50 [2] was 5.00 and the pIC50 [3] was 6.30. For the same molecule, the pIC50 [4] was greater than 7.50, the pIC50 [5] was greater than 7.50 and the viability, T/C (second compound 0.1 µM, first compound 0.0316 µM) was 86.3%. For the same molecule, the viability, T/C (second compound 0.1 µM, first compound 0.1 µM) was 87.3%, the viability, T/C (second compound 0.1 µM, first compound 0.316 µM) was 98.5% and the viability, T/C (second compound 0.1 µM, first compound 1 µM) was 98%. The viability, T/C (second compound 0.1 µM, first compound 3.16 µM) was 71.7%, the viability, T/C (second compound 0.1 µM, first compound 10 µM) was 50.1% and the viability, T/C (second compound 0.316 µM, first compound 0.0316 µM) was 62.2%. The viability, T/C (second compound 0.316 µM, first compound 0.1 µM) was 60.7%, the viability, T/C (second compound 0.316 µM, first compound 0.316 µM) was 62.5% and the viability, T/C (second compound 0.316 µM, first compound 1 µM) was 74.8%. The viability, T/C (second compound 0.316 µM, first compound 3.16 µM) was 53.3%, the viability, T/C (second compound 0.316 µM, first compound 10 µM) was 39.3% and the viability, T/C (second compound 1 µM, first compound 0.0316 µM) was 58.4%. It also gave a viability, T/C (second compound 1 µM, first compound 0.1 µM) of 53.6%, a viability, T/C (second compound 1 µM, first compound 0.316 µM) of 52.6% and a viability, T/C (second compound 1 µM, first compound 1 µM) of 46%. The viability, T/C (second compound 1 µM, first compound 3.16 µM) was 40.1%, the viability, T/C (second compound 1 µM, first compound 10 µM) was 27.8% and the viability, T/C (second compound 3.16 µM, first compound 0.0316 µM) was 35.7%. The viability, T/C (second compound 3.16 µM, first compound 0.1 µM) was 34.1%, the viability, T/C (second compound 3.16 µM, first compound 0.316 µM) was 29.4% and the viability, T/C (second compound 3.16 µM, first compound 1 µM) was 31.3%. The viability, T/C (second compound 3.16 µM, first compound 3.16 µM) was 30.1%, the viability, T/C (second compound 3.16 µM, first compound 10 µM) was 18.6% and the viability, T/C (second compound 10 µM, first compound 0.0316 µM) was 17.3%. It also gave a viability, T/C (second compound 10 µM, first compound 0.1 µM) of 18.3%, a viability, T/C (second compound 10 µM, first compound 0.316 µM) of 18.9% and a viability, T/C (second compound 10 µM, first compound 1 µM) of 16.9%. For the same molecule, the viability, T/C (second compound 10 µM, first compound 3.16 µM) was 13.7% and the viability, T/C (second compound 10 µM, first compound 10 µM) was 2.03%.

From PubChem BioAssay AID2060326 (Molecular Pharmacology Branch, DTP, NCI, 2025)
